Experiment [1] concerns the target Receptor tyrosine-protein kinase erbB-2 (Homo sapiens, UniProt P04626). The experiment is classed as cell-based. The note with it: insect cells.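 Note: inhibition of HER2 kinase enzyme activity, measured with Poly(Glu:Tyr) as the phosphorylation substrate; in other assays of this panel Not Active means under 50% inhibition at 10 µM.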
In experiment [2] the target is T1, Neuropeptide Y receptor type 2 (Homo sapiens, UniProt P49146). Note: in other assays of this panel Not Active means under 50% inhibition at 10 µM.
T1 sequence (P49146 whole entry): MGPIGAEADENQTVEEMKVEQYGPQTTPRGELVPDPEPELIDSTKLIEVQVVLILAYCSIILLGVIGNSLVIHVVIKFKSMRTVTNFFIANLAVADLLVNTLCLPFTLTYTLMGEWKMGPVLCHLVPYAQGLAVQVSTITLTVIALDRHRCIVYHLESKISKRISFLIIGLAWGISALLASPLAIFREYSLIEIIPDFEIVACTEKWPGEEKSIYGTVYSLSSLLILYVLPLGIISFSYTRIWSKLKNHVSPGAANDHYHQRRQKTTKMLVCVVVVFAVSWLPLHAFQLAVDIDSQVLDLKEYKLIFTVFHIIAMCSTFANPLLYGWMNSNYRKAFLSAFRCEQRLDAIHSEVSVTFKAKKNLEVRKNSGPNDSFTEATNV
The experiment is classed as cell membranes, Membrane. To be noted: kan-ts.

A further experiment deals with T2, Cathepsin G (Homo sapiens, UniProt P08311).
T2 sequence (P08311 whole entry): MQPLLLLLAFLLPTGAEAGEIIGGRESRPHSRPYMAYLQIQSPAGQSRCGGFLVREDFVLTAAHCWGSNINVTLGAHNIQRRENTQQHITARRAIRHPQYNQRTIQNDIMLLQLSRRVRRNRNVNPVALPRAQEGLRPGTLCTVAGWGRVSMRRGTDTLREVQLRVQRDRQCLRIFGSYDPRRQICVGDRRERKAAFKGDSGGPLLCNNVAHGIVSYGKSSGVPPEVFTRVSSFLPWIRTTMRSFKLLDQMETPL
Description: biochemical. The experiment is classed as tissue-based, Neutrophil. To be noted: neutrophil.

Experiment [3] is described as follows: DRUGMATRIX: Phosphodiesterase PDE4 enzyme inhibition (substrate: [3H]cAMP + cAMP). To be noted: u-937, Not Active = under 50% inhibition at 10 µM.
A short description of experiment [4]: DRUGMATRIX: Calcium Channel Type L, Dihydropyridine radioligand binding (ligand: [3H] Nitrendipine). The experiment is classed as cell membranes, Rattus norvegicus, Wistar, Cerebral cortex, Membrane. The note with it: Not Active = under 50% inhibition at 10 µM.
A further experiment deals with Carbonic anhydrase 2 (Homo sapiens, UniProt P00918). The experiment in a line: DRUGMATRIX: Carbonic Anhydrase II enzyme inhibition (substrate: 4-Nitrophenyl acetate (4-NPA)). To be noted: erythrocyte; Not Active = under 50% inhibition at 10 µM. The experiment is classed as tissue-based, Erythrocyte.
Experiment [5] concerns the target Mitogen-activated protein kinase 3 (Homo sapiens, UniProt P27361). The experiment in a line: DRUGMATRIX: Protein Serine/Threonine Kinase, ERK1 enzyme inhibition (substrate: Myelin Basic Protein). Also noted: species or system Escherichia coli. To be noted: Not Active = under 50% inhibition at 10 µM.

Our source for the IC50 and Ki values is ChEMBL document CHEMBL1909046, “DrugMatrix in vitro pharmacology data”.

Sequence of Mitogen-activated protein kinase 3 (P27361 whole entry): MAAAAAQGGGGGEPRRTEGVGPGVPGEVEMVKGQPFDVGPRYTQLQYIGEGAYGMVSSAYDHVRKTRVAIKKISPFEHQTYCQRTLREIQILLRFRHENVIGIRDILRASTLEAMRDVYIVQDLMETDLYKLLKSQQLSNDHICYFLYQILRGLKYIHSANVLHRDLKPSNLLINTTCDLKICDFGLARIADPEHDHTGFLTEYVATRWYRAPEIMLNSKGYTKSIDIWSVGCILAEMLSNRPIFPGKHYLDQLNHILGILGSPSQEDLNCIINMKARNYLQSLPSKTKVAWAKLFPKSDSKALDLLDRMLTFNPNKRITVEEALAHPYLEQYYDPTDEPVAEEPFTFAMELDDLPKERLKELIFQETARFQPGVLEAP

As a reminder, the IC50 is the concentration that gives 50% inhibition. The Ki is the equilibrium dissociation constant of an inhibitor or competing ligand from its target. On to `C=CCc1ccc2c(c1)OCO2` [SAFROLE], for which the IC50 entry (in experiment [1]; in experiment [2]; against Cathepsin G; in experiment [3]; in experiment [4]; against Carbonic anhydrase 2) was “Not Active” each time. The IC50 entry in experiment [5] is given as “Not Active”. For the same compound, the Ki entry in experiment [3] and in experiment [4] was “Not Active” in each case.

As for `O=[As][O-].[Na+]` [SODIUM ARSENITE], the IC50 entry (in experiment [1]; in experiment [2]; on Cathepsin G; in experiment [3]; in experiment [4]; at Carbonic anhydrase 2) was “Not Active” throughout. In addition, the IC50 entry in experiment [5] is on record as “Not Active”. For the same compound, the Ki entry in experiment [3] and in experiment [4] was “Not Active” each time.

For `Cc1cn([C@H]2C=C[C@@H](CO)O2)c(=O)[nH]c1=O` [STAVUDINE], the IC50 result (in experiment [1]; in experiment [2]; at Cathepsin G; in experiment [3]; in experiment [4]; on Carbonic anhydrase 2) was “Not Active” each time. For the same compound, the IC50 result in experiment [5] is listed as “Not Active”. For the same compound, the Ki entry in experiment [3] and in experiment [4] was “Not Active” in each case.

Consider `COC(=O)Nc1nc2ccc(C(=O)c3ccccc3)cc2[nH]1` [MEBENDAZOLE], for which the IC50 result (in experiment [1]; in experiment [2]; on Cathepsin G; in experiment [3]; in experiment [4]; on Carbonic anhydrase 2) was “Not Active” throughout. The IC50 result in experiment [5] is “Not Active”. Moreover, the Ki entry in experiment [3] and in experiment [4] was “Not Active” throughout.

For `CC[C@H](C)C(=O)O[C@H]1CCC=C2C=C[C@H](C)[C@H](CC[C@@H]3C[C@@H](O)CC(=O)O3)[C@H]21` [MEVASTATIN], the IC50 entry (in experiment [1]; in experiment [2]; against Cathepsin G; in experiment [3]; in experiment [4]; against Carbonic anhydrase 2) was “Not Active” in each case. In addition, the IC50 result in experiment [5] is on record as “Not Active”. The Ki entry in experiment [3] and in experiment [4] was “Not Active” each time.

Turning to `O=C(OC[C@H]1O[C@@H](OC(=O)c2cc(O)c(O)c(OC(=O)c3cc(O)c(O)c(O)c3)c2)[C@H](OC(=O)c2cc(O)c(O)c(OC(=O)c3cc(O)c(O)c(O)c3)c2)[C@@H](OC(=O)c2cc(O)c(O)c(OC(=O)c3cc(O)c(O)c(O)c3)c2)[C@@H]1OC(=O)c1cc(O)c(O)c(OC(=O)c2cc(O)c(O)c(O)c2)c1)c1cc(O)c(O)c(OC(=O)c2cc(O)c(O)c(O)c2)c1` [TANNIC ACID], the half-maximal inhibitory concentration (IC50) result in experiment [1] was “Not Active”; in experiment [2] it was “Not Active”; against Cathepsin G it was “Not Active”; in experiment [3] (read-out: IC50) it was 1040 nM; in experiment [4], “Not Active”; on Carbonic anhydrase 2 it was “Not Active”. In experiment [5] (read-out: IC50), the IC50 amounted to 4050 nM. In experiment [4], the Ki result is given as “Not Active”.

As for LEAD(IV) ACETATE, the IC50 result (in experiment [1]; in experiment [2]; at Cathepsin G; in experiment [3]; in experiment [4]; against Carbonic anhydrase 2) was “Not Active” throughout. Besides, in experiment [5], the IC50 entry is “Not Active”. Further, the Ki entry (in experiment [1]; in experiment [2]; at Cathepsin G; in experiment [3]; in experiment [4]; at Carbonic anhydrase 2) was “Not Active” each time. The Ki entry in experiment [5] is given as “Not Active”.

`CC#C[C@]1(O)CC[C@H]2[C@@H]3CCC4=CC(=O)CCC4=C3[C@@H](c3ccc(N(C)C)cc3)C[C@@]21C` [MIFEPRISTONE]: the IC50 entry (in experiment [1]; in experiment [2]; at Cathepsin G; in experiment [3]; in experiment [4]; at Carbonic anhydrase 2) was “Not Active” in each case. The half-maximal inhibitory concentration (IC50) result in experiment [5] is recorded as “Not Active”. The inhibition constant (Ki) result in experiment [3] and in experiment [4] was “Not Active” each time.

Consider `Cc1[nH]c(=O)c(C#N)cc1-c1ccncc1` [MILRINONE], for which the IC50 result (in experiment [1]; in experiment [2]; against Cathepsin G; in experiment [3]; in experiment [4]; against Carbonic anhydrase 2) was “Not Active” throughout. Further, in experiment [5], the IC50 result is given as “Not Active”. Moreover, the inhibition constant (Ki) result in experiment [3] and in experiment [4] was “Not Active” each time.

For `CCN(CC)N=O` [N-NITROSODIETHYLAMINE], the half-inhibitory concentration (IC50) result (in experiment [1]; in experiment [2]; against Cathepsin G; in experiment [3]; in experiment [4]; against Carbonic anhydrase 2) was “Not Active” each time. Moreover, the IC50 result in experiment [5] was “Not Active”. For the same compound, the Ki result in experiment [3] and in experiment [4] was “Not Active” in each case.

Regarding `Cc1ccc(S(=O)(=O)NC(=O)NN2CCCCCC2)cc1` [TOLAZAMIDE], the IC50 result (in experiment [1]; in experiment [2]; against Cathepsin G; in experiment [3]; in experiment [4]; against Carbonic anhydrase 2) was “Not Active” throughout. Also, in experiment [5], the 50% inhibitory concentration (IC50) entry is listed as “Not Active”. Also, the Ki result in experiment [3] and in experiment [4] was “Not Active” throughout.

For `CC(O)C(=O)O` (stereo not given) [LACTIC ACID], the IC50 entry (in experiment [1]; in experiment [2]; against Cathepsin G; in experiment [3]; in experiment [4]; on Carbonic anhydrase 2) was “Not Active” in each case. In experiment [5], the IC50 entry is “Not Active”. Also, the Ki result in experiment [3] and in experiment [4] was “Not Active” in each case.

Regarding `CS(=O)(=O)c1ccc(C2=C(c3ccccc3)C(=O)OC2)cc1` [ROFECOXIB], the half-inhibitory concentration (IC50) entry (in experiment [1]; in experiment [2]; on Cathepsin G; in experiment [3]; in experiment [4]; against Carbonic anhydrase 2) was “Not Active” in each case. Besides, the IC50 result in experiment [5] is recorded as “Not Active”. Moreover, the Ki entry in experiment [3] and in experiment [4] was “Not Active” throughout.

Take `CCOC(=O)C1=C(C)NC(C)=C(C(=O)OCC)C1c1ccccc1/C=C/C(=O)OC(C)(C)C` [LACIDIPINE]: the IC50 entry is “Not Active” in experiment [1]; “Not Active” in experiment [2]; “Not Active” at Cathepsin G; “Not Active” in experiment [3]; 0.4 nM in experiment [4] (read-out: IC50); “Not Active” against Carbonic anhydrase 2. In addition, the IC50 result in experiment [5] is given as “Not Active”. In addition, the Ki entry is “Not Active” in experiment [3] and 0.257 nM in experiment [4] (read-out: Ki).

As for `CC(N)C12CC3CC(CC(C3)C1)C2` (stereo not given) [RIMANTADINE], the IC50 result (in experiment [1]; in experiment [2]; against Cathepsin G; in experiment [3]; in experiment [4]; on Carbonic anhydrase 2) was “Not Active” throughout. In addition, the IC50 result in experiment [5] is on record as “Not Active”. The Ki result in experiment [3] and in experiment [4] was “Not Active” each time.

Consider `CC(Cl)(Cl)Cl` [TRICHLOROETHANE], for which the IC50 result (in experiment [1]; in experiment [2]; on Cathepsin G; in experiment [3]; in experiment [4]; on Carbonic anhydrase 2) was “Not Active” in each case. Further, the IC50 entry in experiment [5] is “Not Active”. Further, the Ki entry in experiment [3] and in experiment [4] was “Not Active” each time.

Turning to `O=C(O)c1cc(/N=N/c2ccc(S(=O)(=O)Nc3ccccn3)cc2)ccc1O` [SULFASALAZINE], the IC50 result (in experiment [1]; in experiment [2]; on Cathepsin G; in experiment [3]; in experiment [4]; on Carbonic anhydrase 2) was “Not Active” throughout. Besides, in experiment [5], the IC50 result was “Not Active”. The Ki result in experiment [3] and in experiment [4] was “Not Active” in each case.

With `Cc1cccc(C)c1NC(=O)C(C)N` (stereo not given) [TOCAINIDE], the IC50 result (in experiment [1]; in experiment [2]; against Cathepsin G; in experiment [3]; in experiment [4]; at Carbonic anhydrase 2) was “Not Active” in each case. Moreover, the IC50 entry in experiment [5] is recorded as “Not Active”. Besides, the Ki entry in experiment [3] and in experiment [4] was “Not Active” throughout.

On to `CO[C@@]12[C@H](COC(N)=O)C3=C(C(=O)C(C)=C(N)C3=O)N1C[C@@H]1N[C@@H]12` [MITOMYCIN], for which the IC50 result (in experiment [1]; in experiment [2]; on Cathepsin G; in experiment [3]; in experiment [4]; against Carbonic anhydrase 2) was “Not Active” in each case. In experiment [5], the IC50 result is “Not Active”. The Ki entry in experiment [3] and in experiment [4] was “Not Active” each time.
